Source: patent US11883381B2, “ASH1L inhibitors and methods of treatment therewith” (The Regents of the University of Michigan, priority 2016, dated 2024)

Columns and labels:
[1] = molecular target: T1, ASH1L SET-BAH construct (amino acids 2069-2833) (Homo sapiens, UniProt Q9NR48); test: ASH1L histone methyltransferase assay (KMTase assay); format: biochemical; details: Table 6 section headings give the IC50 class; assay not given
T1 construct: ASH1L SET-BAH construct (amino acids 2069-2833) at 0.25 μM was incubated with 0.7 μM SAM; MOCR fusion (TEV-cleavable); made in house; host or cells: E. coli BL21(DE3) T1R
Description: ASH1L Histone Methyltransferase Assay (KMTase Assay)
The reactions were stopped by spotting 5 μL of the reaction mixture on P81 cellulose squares (Reaction Biology). The P81 squares were dried for 45 min and washed five times with 50 mM sodium bicarbonate (pH 9.0), 10 min per wash. The P81 squares were then dried for 1 h, added to 10 mL of Ultima Gold scintillation cocktail (PerkinElmer), and analyzed using a Beckman scintillation counter.

[2] = tested on: human acute leukemia cells with various MLL translocations; test: Cell proliferation in a panel of human acute leukemia cells; format: cell-based
Description: (§1) MA9 (MLL-AF9 transformed), HM2 (Hoxa9/Meis1 transformed) murine bone marrow cells (BMC), MV4;11 and MOL13 human leukemia cells were plated at 1×10^5 cells/ml in 24-well plates, treated with 0.25% DMSO or compounds and cultured at 37° C. for 12 days. Every four days, the volume corresponding to 1×10^5 cells of DMSO-treated cells was spun down and resuspended in fresh media with fresh compound. At day 0 and each four day interval, 100 μl aliquots of the cell suspension were transferred to 96-well plates in quadruplicates. The quadruplicate samples were incubated for 4 days at 37° C., and then an MTT cell proliferation assay kit (Roche) was used to measure viable cells. Absorbance was read at 570 nm using a PHERAstar (BMG) microplate reader.

[3] = tested on: MLL fusion target genes (Hoxa cluster, Meis1) in MLL-AF9 cells; test: Quantitative RT-PCR of MLL fusion target genes, MLL-AF9 cells; format: cell-based, mouse; details: for Expression of MLL fusion target genes (Hoxa cluster, Meis1): MLL-AF9 cells, normalized to β-actin
Description: (§2) Total RNA was extracted from cells using the RNeasy mini kit (QIAGEN), and then 100-2000 ng of total RNA was reverse transcribed using the High Capacity cDNA Reverse Transcription Kit (Applied Biosystems) according to the manufacturer's protocol. Real-time PCR was performed using a CFX96 Real-Time PCR Detection System (Biorad). TaqMan Gene Expression Master Mix and TaqMan Gene Expression Assays for mouse Gapdh (Mm99999915), mouse Ash1l (Mm00467322), mouse Hoxa7 (Mm00657963), mouse Hoxa9 (Mm00439364), mouse Hoxa10 (Mm00433966), mouse Meis1 (Mm00487664), and mouse B-actin (Mm00607939) were purchased from Thermo Fisher. Relative quantification of each gene transcript was carried out using the ΔΔCt method as described in the Biorad Real-Time PCR Applications Guide.

ASH1L = molecular target: T2, ASH1L (Homo sapiens, UniProt Q9NR48); test: ASH1L degradation in HeLa cells; format: cell-based; details: 0.05-50 μM
T2 construct: endogenous in cells; host or cells: HeLa

[4] = tested on: HM-2 (Hoxa9/Meis1) negative control cell line; test: Differentiation, HM-2 control cell line; format: cell-based, murine; details: negative control cell line HM-2
[5] = tested on: MOLM13 cells expressing MLL-AF9; test: Cell viability (MTT) assay, MOLM13 cells; format: cell-based, human; details: 4 days of treatment
Description: as §1

MLL-AF9 cells = test: Differentiation (cytospin/Wright-Giemsa staining), MLL-AF9 cells; format: cell-based, mouse
Description: Cytospin/Wrigtht-Giemsa Staining
1×10^5 MA9 mouse BMCs treated with compounds were harvested and placed in a Shandon EZ Single Cytofunnel (Thermo Fisher). Samples were centrifuged at 600 rpm for 5 min. The slides were air dried before staining with a Hema-3 kit (Thermo Fisher).

[6] = tested on: murine bone marrow cells transformed with MLL-AF9 (MA9); test: Cell viability (MTT) assay, MLL-AF9 transformed murine bone marrow cells; format: cell-based; details: 8 days of treatment
Description: as §1

[7] = tested on: MV4;11 cells (expressing MLL-AF4); test: Cell viability (MTT) assay, MV4;11 cells; format: cell-based, human; details: 4 days of treatment
Description: as §1

[8] = tested on: Hoxa cluster, Meis1 genes in control cell line HM-2; test: Quantitative RT-PCR of MLL fusion target genes, HM-2 control cell line; format: cell-based, mouse; details: normalized to β-actin
Description: as §2

SMILES | IC50 [1] [µM] | also measured
NC(=S)c1cccc(-c2cccc3[nH]ccc23)c1 [Compound 34] | > 100 | 
NC(=O)NCc1ccc2c(-c3cccc(C(N)=S)c3)cn(CC(CF)CF)c2c1 [Compound 204] | < 20 | 
NC(=S)c1cccc(-c2cn(CCCC(F)(F)F)c3cc(-c4ccn[nH]4)ccc23)c1 [Compound 260] |  | Cell proliferation [2]: inhibits cell proliferation; Expression of MLL fusion target genes (Hoxa9, Hoxa10 and Meis1) ([3]; MLL-AF9 transformed murine leukemia cells): downregulates expression
NC(=S)c1cccc(-c2cn(CC(CF)CF)c3cc(NC(=O)CCOCCOCCOCCOc4cccc5c4C(=O)N(C4CCC(=O)NC4=O)C5=O)ccc23)c1 (stereo not drawn) [Compound 301] | < 20 | Degradation of ASH1L (ASH1L): Degradation of ASH1L induced
NC(=S)c1cccc(-c2cn(CC(CO)(C(F)F)C(F)F)c3cc(C(O)CF)ccc23)c1 (stereo not drawn) [Compound 209] | < 20 | 
NC(=S)c1cccc(-c2cn(CC(CF)CF)c3cc(C(O)CC(F)(F)F)ccc23)c1 (stereo not drawn) [Compound 202] | < 20 | 
NC(=S)c1cccc(-c2cn(CC(CO)(C(F)F)C(F)F)c3cc(CO)ccc23)c1 [Compound 200] | < 20 | 
NC(=S)c1cccc(-c2cn(CC(CF)CF)c3cc(N)ccc23)c1 [Compound 126, 3-(6-amino-1-(3-fluoro-2-(fluoromethyl)propyl)-1H-indol-3-yl)benzothioamide] |  | Differentiation of cells [4]: but not in negative control cell line HM-2; Expression of MLL fusion target genes (Hoxa cluster, Meis1) [3]: downregulates expression; Inhibition of cell proliferation [5]: Inhibition of cell proliferation; Differentiation of cells (MLL-AF9 cells): induces differentiation; Inhibition of cell proliferation [6]: Inhibition of cell proliferation; Inhibition of cell proliferation [7]: Inhibition of cell proliferation; Expression of MLL fusion target genes (Hoxa cluster, Meis1) [8]: has no effect on expression
NC(=S)c1cccc(-c2cn(-c3ccc[nH]3)c3cc(CO)ccc23)c1 [Compound 220] | < 20 | 
NC(=S)c1cccc(-c2c[nH]c3ccc(O)cc23)c1 [Compound 69] |  | Expression of MLL fusion target genes (Hoxa cluster, Meis1) [3]: does not affect gene expression; Expression of MLL fusion target genes (Hoxa cluster, Meis1) [8]: does not affect gene expression
NC(=S)c1cccc(-c2cn(CC(CF)CF)c3cc(CNC(=O)c4cnc[nH]4)ccc23)c1 [Compound 203] | < 20 | 

Continued, in another order:

IC50 [1] [µM] | SMILES | also measured
< 20 | CC(=O)Nc1ccc2c(-c3cccc(C(N)=S)c3)cn(CC(CF)CF)c2c1 [Compound 136] | 
< 20 | NC(=S)c1cccc(-c2cn(C(C(F)(F)F)C(F)(F)F)c3cc(CO)ccc23)c1 [Compound 207] | 
> 100 | NC(=S)c1ccc(O)c(-c2cccc3[nH]ncc23)c1 [Compound 35] | 
20 to 100 | NC(=S)c1cccc(-c2c[nH]c3ccccc23)c1 [Compound 89] | 
< 20 | NC(=S)c1cccc(-c2cn(CCCC(F)(F)F)c3cc(CNCc4ccccc4)ccc23)c1 [Compound 120] | 
< 20 | NC(=S)c1cccc(-c2cn(CC(CF)CF)c3cc(NC(=O)c4cc[nH]c4)ccc23)c1 [Compound 137] | 
< 20 | NC(=S)c1cccc(-c2cn(CC(CF)CF)c3cc(CNC(=O)CC(F)(F)F)ccc23)c1 [Compound 206] | 
